According to patent US20230075521A1, “RESVERATROL PHARMACEUTICAL COMPOSITIONS AND METHODS OF USE THEREOF” (priority 2021, published 2023):
“And” between values parts separate entries of the source, which are not always exact repeats. Equal values may be shown once. Read-outs that look alike come from different tables or passages of the source.

Key:
[1] = system: AD-related gene expression; assay: RT-qPCR of brain regions, long-term treatment; type: in vivo, 3×Tg-AD mouse; conditions: 3×Tg-AD mice, 50 mg/kg, 9 months
Experimental: (§1) At study endpoints (age 15 months for sub-chronic study, age 13 months for long-term study), mice were anaesthetized with isoflurane and blood was collected by transcardial puncture. Blood was stored on ice and then centrifuged at 10,000×g at 4° C. for 10 min to collect serum and stored at −80° C. until use. The brain was then extracted and quickly dissected on ice to collect prefrontal cortex (PFC), hippocampus, entorhinal cortex (ERC), and cerebellum, which were immediately frozen in liquid nitrogen. The samples were stored at −80° C. until processed for RNA or protein extraction. For each mouse, brain regions from one hemisphere were used for RNA preparation and qPCR and sections from the other hemisphere were used for protein work including ELISAs.

[2] = system: ERC cytokines and chemokines; assay: Entorhinal cortex (ERC) cytokine and chemokine levels (48-Plex ProcartaPlex, Luminex); type: in vivo, 3×Tg-AD mouse
Experimental: as §1
Protein lysates were extracted by sonicating tissue in M-PER Mammalian Protein Extraction Reagent (Thermo Fisher Scientific) supplemented with protease inhibitor (Thermo Fisher Scientific) and phosphatase inhibitor (Thermo Fisher Scientific). Total protein was quantified using Pierce BCA Protein Assay Kit (Thermo Fisher Scientific) and read at 562 nm using EnVision (Perkin Elmer).
Human Aβ1-42, Aβ1-40, phosphorylated tau Ser 396, phosphorylated tau Thr181, and total tau were measured in brain tissue by enzyme linked immuno-sorbent assay (ELISA; Invitrogen by Thermo) and normalized to total protein. All the kits were used as per the manufacturer's instructions and measured using the EnVision® multimode plate reader (Perkin Elmer). Serum and brain tissue protein extracts were analyzed for cytokine and chemokine levels using the Immune Monitoring 48-Plex Mouse ProcartaPlex™ Panel (Invitrogen by Thermo) according to manufacturer's standard protocol and read using Luminex xMAP (multi-analyte profiling) technology.

[3] = cited from earlier work
[4] = Rat PK study, resveratrol in plasma at 30 min; type: in vivo; conditions: male, oral, 50 mg/kg, Sprague-Dawley rats, single dose, 30 min after treatment
Experimental: (§2) For mouse PK studies, male CD-1 mice (Charles River Canada) were used. Animals were food fasted for 4 h prior to dosing and water fasted 1 h prior to dosing. […] At each time point (15 min, 30 min, 1 h, 4 h) 3 mice of each group were terminally bled via cardiac puncture under red light. Blood was collected into sodium-EDTA tubes under red light and spun at […] for 10 min at 6800×g. Plasma was collected and split into amber tubes. Both left and right brain were collected and snap-frozen in liquid nitrogen and stored at […] Drug concentrations were analyzed by liquid chromatography-mass spectrometry (LC-MS/MS) by KDM Laboratories Inc. For rat PK studies, male Sprague-Dawley rats (Charles River Canada) were used. […] Blood was collected under red light from the trunk at 30 min into K3EDTA tubes and centrifuged immediately at 4° C. for 10 min at 6800×g, and plasma collected into amber tubes. Brains were collected and snap-frozen in liquid nitrogen and stored at […] Drug concentration was analyzed by LC-MS/MS.

[5] = Mouse PK study, resveratrol in brain; type: in vivo, CD-1 mice; conditions: male mice, single dose 50 mg/kg oral, 30 min
Experimental: as §2

[6] = female 3×Tg-AD mice, 50 mg/kg oral, 9 months
[7] = female 3×Tg-AD mice, 50 mg/kg oral, 9 months, 50 mg/kg
[8] = male 3×Tg-AD mice, 50 mg/kg oral, 9 months
[9] = male 3×Tg-AD mice, 50 mg/kg oral, 9 months, 50 mg/kg

Oc1ccc(/C=C/c2cc(O)cc(O)c2)cc1 [RSV, (trans-)resveratrol]
Adam10 expression in PFC, increase vs vehicle [1]: 20.44% | IFNg ERC level, change vs vehicle [2, 6]: -0.64 pg/mL | IL-1b ERC level, change vs vehicle [2, 6]: -1.12 pg/mL | IL-2 ERC level, change vs vehicle [2, 6]: 18.07 pg/mL | IL-2RA ERC level, change vs vehicle [2, 6]: -0.95 pg/mL | IL-3 ERC level, change vs vehicle [2, 6]: -0.34 pg/mL | IL-5 ERC level, change vs vehicle [2, 6]: -6.60 pg/mL | IL-9 ERC level, change vs vehicle [2, 6]: 7.25 pg/mL | IL- 10 ERC level, change vs vehicle [2, 6]: 0.54 pg/mL | IL-12p70 ERC level, change vs vehicle [2, 6]: 1.75 pg/mL | IL-13 ERC level, change vs vehicle [2, 6]: 1.74 pg/mL | IL-17A ERC level, change vs vehicle [2, 6]: 0.69 pg/mL | IL-22 ERC level, change vs vehicle [2, 6]: -0.13 pg/mL | IL-25/IL-17 ERC level, change vs vehicle [2, 6]: -23.30 pg/mL | IL-27 ERC level, change vs vehicle [2, 6]: -0.87 pg/mL | IL-33 ERC level, change vs vehicle [2, 6]: -56.09 pg/mL | LIX ERC level, change vs vehicle [2, 6]: -12.67 pg/mL | M-CSF ERC level, change vs vehicle [2, 6]: -0.32 pg/mL | MCP-3 ERC level, change vs vehicle [2, 6]: 1.94 pg/mL | MIP-2 ERC level, change vs vehicle [2, 6]: -2.59 pg/mL | RANTES ERC level, change vs vehicle [2, 6]: -1.97 pg/mL | TNFa ERC level, change vs vehicle [2, 6]: -10.12 pg/mL | VEGF-A ERC level, change vs vehicle [2, 6]: 4.80 pg/mL | sRANKL ERC level, change vs vehicle [2, 6]: 0.70 pg/mL | IL-6 ERC level, change vs vehicle [2, 7]: 5.44 ± 2.1 pg/mL and 5.44 pg/mL | IL-7 ERC level, change vs vehicle [2, 7]: 40.12 ± 15.04 pg/mL and 40.12 pg/mL | IL-18 ERC level, change vs vehicle [2, 7]: -84.91 ± 35.55 pg/mL and -84.91 pg/mL | IL-19 ERC level, change vs vehicle [2, 7]: 105.7 ± 22.58 pg/mL and 105.70 pg/mL | IL-23 ERC level, change vs vehicle [2, 7]: 42.53 ± 10.42 pg/mL and 42.53 pg/mL | IL-28 ERC level, change vs vehicle [2, 7]: 146.9 ± 34.42 pg/mL and 146.90 pg/mL | IP-10 ERC level, change vs vehicle [2, 7]: 21.13 ± 4.32 pg/mL and 21.13 pg/mL | IFNg ERC level, change vs vehicle [2, 8]: 1.51 pg/mL | IL-1b ERC level, change vs vehicle [2, 8]: 0.97 pg/mL | IL-2 ERC level, change vs vehicle [2, 8]: 31.55 pg/mL | IL-3 ERC level, change vs vehicle [2, 8]: 0.18 pg/mL | IL-5 ERC level, change vs vehicle [2, 8]: 3.37 pg/mL | IL-6 ERC level, change vs vehicle [2, 8]: 2.70 pg/mL | IL-7 ERC level, change vs vehicle [2, 8]: 41.08 pg/mL | IL-9 ERC level, change vs vehicle [2, 8]: 19.29 pg/mL | IL-12p70 ERC level, change vs vehicle [2, 8]: 0.61 pg/mL | IL-13 ERC level, change vs vehicle [2, 8]: 5.16 pg/mL | IL-17A ERC level, change vs vehicle [2, 8]: 2.77 pg/mL | IL-18 ERC level, change vs vehicle [2, 8]: 42.33 pg/mL | IL-19 ERC level, change vs vehicle [2, 8]: 104.30 pg/mL | IL-22 ERC level, change vs vehicle [2, 8]: 2.18 pg/mL | IL-23 ERC level, change vs vehicle [2, 8]: 41.51 pg/mL | IL-25/IL-17 ERC level, change vs vehicle [2, 8]: 15.36 pg/mL | IL-27 ERC level, change vs vehicle [2, 8]: 2.75 pg/mL | IL-28 ERC level, change vs vehicle [2, 8]: 130.90 pg/mL | IL-33 ERC level, change vs vehicle [2, 8]: 64.64 pg/mL | IP-10 ERC level, change vs vehicle [2, 8]: 13.80 pg/mL | LIX ERC level, change vs vehicle [2, 8]: 16.39 pg/mL | M-CSF ERC level, change vs vehicle [2, 8]: 0.50 pg/mL | MCP-3 ERC level, change vs vehicle [2, 8]: 0.76 pg/mL | RANTES ERC level, change vs vehicle [2, 8]: 1.40 pg/mL | TNFa ERC level, change vs vehicle [2, 8]: 23.73 pg/mL | VEGF-A ERC level, change vs vehicle [2, 8]: 3.55 pg/mL | sRANKL ERC level, change vs vehicle [2, 8]: 2.59 pg/mL | IL-2RA ERC level, change vs vehicle [2, 9]: 0.77 ± 0.043 pg/mL and 0.77 pg/mL | MIP-2 ERC level, change vs vehicle [2, 9]: 7.51 ± 2.55 pg/mL and 7.51 pg/mL | IL-9 in ERC, increase vs vehicle ([2]; males and females combined): 65.4 ± 25.69 pg/mL | Cmax ([3]; 1 g encapsulated dose (Turner et al. 2015)): 85 ng/mL | Cmax ([3]; 2.5 g micronized dose (Howells et al. 2011)): 1942 ng/mL | AUC exposure, estimated ([3]; 3,000 mg/day, healthy volunteers, published data): 2100 ng·h/mL | concentration at 30 min [4]: 180 ± 33.6 ng/mL | Resveratrol accumulation in the brain [5]: not detected in the brain
